Results on 26 compounds are retold here after ChEMBL document CHEMBL3526149, “Brain tissue binding of drugs: evaluation and validation of solid supported porcine brain membrane vesicles (TRANSIL) as a novel high-throughput method” (Drug Metab Dispos, 2011).

Series [1] in a line: Binding affinity to Wistar rat brain lipid assessed as percentage unbound by TRANSIL assay. The format is ADME, tissue-based.
The nature of series [2]: Ratio, ratio of fraction unbound in solid supported porcine brain membrane vesicles at 5 uM dosed as discrete compounds after 5 hrs by TRANSIL assay to fraction unbound in solid supported porcine brain membrane vesicles at 5 uM using four compound cocktail after 5 hrs by TRANSIL assay. The class given is ADME, Sus scrofa. Conditions: pig.
Series [3] can be described thus: Binding affinity to Wistar rat brain lipid by TRANSIL assay. The format is ADME.
For another series, the target named is Albumin (Rattus norvegicus, UniProt P02770). Description: Binding affinity to Wistar rat serum albumin. The class given is ADME.
Series [4] in a line: Fraction unbound in Wistar rat brain homogenate at 5 uM after 5 hrs by equilibrium dialysis method.
Series [5] in a line: Percentage unbound in solid supported porcine brain membrane vesicles at 5 uM by TRANSIL assay. The settings on record: pig.
Series [6] is described as follows: Percentage unbound in solid supported porcine brain membrane vesicles at 5 uM using four compound cocktail after 5 hrs by TRANSIL assay. The settings on record: pig. The format is ADME, tissue-based, Sus scrofa.
Series [7] in a line: Ratio of fraction unbound in Wistar rat brain homogenate at 5 uM after 5 hrs by equilibrium dialysis method to fraction unbound in solid supported porcine brain membrane vesicles at 5 uM by TRANSIL assay.
A short description of series [8]: Ratio of fraction unbound in solid supported porcine brain membrane vesicles at 5 uM by TRANSIL assay to fraction unbound in Wistar rat brain homogenate at 5 uM after 5 hrs by equilibrium dialysis method. The class given is ADME, tissue-based.
[9] abbreviates: solid supported porcine brain membrane vesicles.

Sequence of Albumin (P02770 whole entry): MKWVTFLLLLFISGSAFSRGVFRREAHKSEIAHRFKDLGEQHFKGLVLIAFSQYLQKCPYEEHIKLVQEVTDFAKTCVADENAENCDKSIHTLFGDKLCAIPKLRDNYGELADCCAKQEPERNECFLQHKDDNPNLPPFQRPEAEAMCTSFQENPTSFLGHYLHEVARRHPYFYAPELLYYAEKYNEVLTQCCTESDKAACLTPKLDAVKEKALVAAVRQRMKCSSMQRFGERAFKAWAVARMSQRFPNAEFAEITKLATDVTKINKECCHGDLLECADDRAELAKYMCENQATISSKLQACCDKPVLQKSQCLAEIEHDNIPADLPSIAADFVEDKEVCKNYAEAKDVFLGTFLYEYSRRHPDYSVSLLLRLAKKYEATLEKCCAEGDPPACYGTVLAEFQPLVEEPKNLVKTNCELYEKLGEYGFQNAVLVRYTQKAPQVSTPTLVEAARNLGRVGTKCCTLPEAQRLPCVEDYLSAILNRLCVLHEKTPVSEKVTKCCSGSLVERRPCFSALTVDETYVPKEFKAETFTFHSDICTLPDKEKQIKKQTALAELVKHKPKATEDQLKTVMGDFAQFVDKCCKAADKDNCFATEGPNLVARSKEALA

As usually defined, the fraction unbound is the share of the substance not bound to proteins or other matrix. Broadly, the Kd is a measure of binding affinity in units of concentration. A high value points to lower affinity. With `CN(C)CCC=C1c2ccccc2CCc2ccccc21` [AMITRIPTYLINE], the fraction unbound in series [1] was found to be 0.0083. Further, the Ratio came to 1 in [2] (in vitro) and 1.2 in series [7]. The Kd in series [3] worked out at 1.01 µM; on Albumin it was 134 µM. For the same compound, the fraction unbound at 5 h, 5 µM in series [4] is 0.009; in series [6], 0.0071. This compound also gave a fraction unbound at 5 µM in [5] (setting [9]) of 0.0073.
For the compound `CCCCN1CCCCC1C(=O)Nc1c(C)cccc1C` (stereo not drawn) [BUPIVACAINE], the values for the Ratio in series [2] (in vitro) and in [7] were 0.9 and 1.6, respectively. The fraction unbound at 5 h, 5 µM in series [4] is 0.278; in series [6] it was 0.19. The fraction unbound at 5 µM in series [5] (setting [9]) worked out at 0.17.
Take `CC(NC(C)(C)C)C(=O)c1cccc(Cl)c1` (stereo not drawn) [BUPROPION]: the Ratio in [2] came to 1.2; in [7], 1. For the same compound, the fraction unbound at 5 h, 5 µM in [4] turned out to be 0.17; in series [6], 0.14. In addition, in [5] (setting [9]), the free fraction (fraction unbound) at 5 µM turned out to be 0.17.
Consider `Cn1c(=O)c2c(ncn2C)n(C)c1=O` [CAFFEINE], for which the fraction unbound at 5 h, 5 µM in series [4] was 0.52. The unbound share (fraction unbound) at 5 µM in series [5] (Brain) worked out at 0.26. Also, the Ratio in [7] is 2.
For the compound `NC(=O)N1c2ccccc2C=Cc2ccccc21` [CARBAMAZEPINE], the fraction unbound in series [1] came out at 0.168. Further, the Kd in [3] worked out at 24.2 µM. For the same compound, the fraction unbound at 5 h, 5 µM in [4] is 0.119; in series [6] it was 0.26. The fraction unbound at 5 µM in series [5] (Brain) amounted to 0.132.
Compound `CCCC(C)(COC(N)=O)COC(=O)NC(C)C` (stereo not drawn) [CARISOPRODOL] showed a fraction unbound at 5 h, 5 µM in series [4] of 0.202. Also, the Ratio in series [8] is 1.5. In series [5] (setting [9]), this compound displayed a fraction unbound at 5 µM of 0.295.
Consider `CN(C)CCCN1c2ccccc2Sc2ccc(Cl)cc21` [CHLORPROMAZINE], for which the fraction unbound in [1] stood at 0.0015. In series [3], this compound gave a Kd of 0.184 µM. The same compound registered a fraction unbound at 5 h, 5 µM in series [4] of 0.002. The compound also yielded a fraction unbound at 5 µM in series [5] (Brain) of 0.0022.
With `CN1CCN(C2=Nc3cc(Cl)ccc3Nc3ccccc32)CC1` [CLOZAPINE], the fraction unbound in series [1] is 0.0064. Besides, the Ratio in [2] (in vitro) was determined as 0.8; in series [7], 1.5. Further, the Kd in [3] came out at 0.775 µM; at Albumin it was 78.8 µM. The fraction unbound at 5 h, 5 µM stood at 0.011 in [4] and 0.0092 in series [6]. In [5] (Brain), this compound had an unbound share (fraction unbound) at 5 µM of 0.0072.
`CN(C)CCC=C1c2ccccc2C=Cc2ccccc21` [CYCLOBENZAPRINE] had a fraction unbound at 5 h, 5 µM in [4] of 0.0073. Besides, the Ratio in series [8] worked out at 1.4. Besides, in series [5] (Brain), the fraction unbound at 5 µM turned out to be 0.01.
For the compound `CNCCC(Oc1ccc(C(F)(F)F)cc1)c1ccccc1` (stereo not drawn) [FLUOXETINE], the free fraction (fraction unbound) in series [1] was 0.0027. The Kd worked out at 0.323 µM in [3] and 36.1 µM on Albumin. The free fraction (fraction unbound) at 5 h, 5 µM in [4] was found to be 0.004. In addition, in series [5] (setting [9]), the fraction unbound at 5 µM amounted to 0.003. Besides, the Ratio in series [7] was 1.3.
As for `O=C(CCCN1CCC(O)(c2ccc(Cl)cc2)CC1)c1ccc(F)cc1` [HALOPERIDOL], the fraction unbound in [1] turned out to be 0.0129. In addition, the Ratio in [2] (in vitro) is 1; in series [8] it was 1.3. Besides, the dissociation constant Kd in [3] turned out to be 1.56 µM; at Albumin, 96.9 µM. For the same compound, the values for the unbound share (fraction unbound) at 5 h, 5 µM in [4] and in series [6] were 0.011 and 0.014, respectively. In series [5] (Brain), the fraction unbound at 5 µM is 0.014.
`OCCOCCN1CCN(C(c2ccccc2)c2ccc(Cl)cc2)CC1` (stereo not drawn) [HYDROXYZINE]: the fraction unbound at 5 h, 5 µM in series [4] came to 0.0102. The Ratio in [8] stood at 2.1. In series [5] (Brain), this compound registered a free fraction (fraction unbound) at 5 µM of 0.021.
Compound `CC(C)Cc1ccc(C(C)C(=O)O)cc1` (stereo not drawn) [IBUPROFEN] returned an equilibrium dissociation constant (Kd) in [3] of 52.7 µM.
With `CCN(CC)CCNC(=O)c1cc(Cl)c(N)cc1OC` [METOCLOPRAMIDE], the fraction unbound in [1] was found to be 0.426. For the same compound, the affinity in [3], expressed as Kd, was 88.9 µM. In [4], this compound showed a fraction unbound at 5 h, 5 µM of 0.36. The compound further displayed a fraction unbound at 5 µM in [5] (Brain) of 0.295.
As to `Cc1ncc2n1-c1ccc(Cl)cc1C(c1ccccc1F)=NC2` [MIDAZOLAM], the Ratio in series [2] is given as 1.1; in series [8], 1.8. Moreover, the fraction unbound at 5 h, 5 µM amounted to 0.023 in series [4] and 0.037 in series [6]. This compound also showed an unbound share (fraction unbound) at 5 µM in [5] (Brain) of 0.041.
Compound `CNCCC=C1c2ccccc2CCc2ccccc21` [NORTRIPTYLINE] gave a fraction unbound at 5 h, 5 µM in [4] of 0.0046. For the same compound, in series [5] (Brain), the fraction unbound at 5 µM turned out to be 0.004. The Ratio in [7] is recorded as 1.2.
`Fc1ccc([C@@H]2CCNC[C@H]2COc2ccc3c(c2)OCO3)cc1` [PAROXETINE] displayed a fraction unbound at 5 h, 5 µM in series [4] of 0.0039. In series [5] (Brain), this compound returned a fraction unbound at 5 µM of 0.0026. Besides, the Ratio in series [7] was 1.5.
`O=C1NC(=O)C(c2ccccc2)(c2ccccc2)N1` [PHENYTOIN] showed a fraction unbound at 5 h, 5 µM in series [4] of 0.081. This compound returned a fraction unbound at 5 µM in series [5] (Brain) of 0.047. In series [7], the Ratio stood at 1.7.
For the compound `CC(C)NCC(O)COc1cccc2ccccc12` (stereo not drawn) [PROPRANOLOL], the Ratio was determined as 1 in series [2] (in vitro) and 1.5 in [7]. Also, the results for the fraction unbound at 5 h, 5 µM in series [4] and in series [6] were 0.03 and 0.02, respectively. In addition, in series [5] (setting [9]), the fraction unbound at 5 µM amounted to 0.02.
Regarding `Cc1nc2n(c(=O)c1CCN1CCC(c3noc4cc(F)ccc34)CC1)CCCC2` [RISPERIDONE], the fraction unbound in series [1] stood at 0.121. This compound yielded a dissociation constant (Kd) on Albumin of 43.8 µM. In series [5] (Brain), this compound gave an unbound share (fraction unbound) at 5 µM of 0.057.
On to `CCN1CCCC1CNC(=O)c1cc(S(N)(=O)=O)ccc1OC` (stereo not drawn) [SULPIRIDE], for which, in series [4], the fraction unbound at 5 h, 5 µM came out at 0.63. In [5] (Brain), this compound displayed a fraction unbound at 5 µM of 0.24. For the same compound, in series [7], the Ratio stood at 2.6.
For the compound `CSc1ccc2c(c1)N(CCC1CCCCN1C)c1ccccc1S2` (stereo not drawn) [THIORIDAZINE], in series [1], the fraction unbound is 0.0031. The Kd in series [3] was 0.369 µM; on Albumin it was 6.69 µM. The compound further had a fraction unbound at 5 h, 5 µM in series [4] of 0.001. Moreover, the fraction unbound at 5 µM in [5] (Brain) stood at 0.0003. Further, the Ratio in [7] is 3.3.
In the case of `O=c1n(CCCN2CCN(c3cccc(Cl)c3)CC2)nc2ccccn12` [TRAZODONE], the unbound share (fraction unbound) in [1] is 0.0437. The Kd in series [3] turned out to be 5.47 µM; at Albumin, 7.95 µM. The compound further came in with a free fraction (fraction unbound) at 5 h, 5 µM in [4] of 0.055. Moreover, in [5] (setting [9]), the fraction unbound at 5 µM is 0.057. Besides, the Ratio in series [7] came out at 1.
Regarding `CN1CCN(CCCN2c3ccccc3Sc3ccc(C(F)(F)F)cc32)CC1` [TRIFLUOPERAZINE], in [1], the fraction unbound came out at 0.0033. The same compound displayed a Kd in series [3] of 0.392 µM. Also, the unbound share (fraction unbound) at 5 h, 5 µM in series [4] was found to be 0.0007. This compound returned a fraction unbound at 5 µM in series [5] (Brain) of 0.0018.
For `COc1ccc(C(CN(C)C)C2(O)CCCCC2)cc1` (stereo not drawn) [VENLAFAXINE], the fraction unbound in [1] was found to be 0.242. The Kd in series [3] came to 38.2 µM. This compound yielded a fraction unbound at 5 h, 5 µM in series [4] of 0.21. In series [5] (Brain), this compound had a fraction unbound at 5 µM of 0.123.
`CC(=O)CC(c1ccccc1)c1c(O)c2ccccc2oc1=O` (stereo not drawn) [WARFARIN]: the fraction unbound in series [1] was 0.405. In series [3], this compound returned a Kd of 81.4 µM.
